Where two headings read alike, the source gives them in different places.
Assays:
JMJD1A (KDM3A) [1] = target: T1, JMJD1A (KDM3A) (Homo sapiens, UniProt Q9Y4C1); test: KDM AlphaScreen assay, JMJD1A
T1 sequence (Q9Y4C1 1-1321): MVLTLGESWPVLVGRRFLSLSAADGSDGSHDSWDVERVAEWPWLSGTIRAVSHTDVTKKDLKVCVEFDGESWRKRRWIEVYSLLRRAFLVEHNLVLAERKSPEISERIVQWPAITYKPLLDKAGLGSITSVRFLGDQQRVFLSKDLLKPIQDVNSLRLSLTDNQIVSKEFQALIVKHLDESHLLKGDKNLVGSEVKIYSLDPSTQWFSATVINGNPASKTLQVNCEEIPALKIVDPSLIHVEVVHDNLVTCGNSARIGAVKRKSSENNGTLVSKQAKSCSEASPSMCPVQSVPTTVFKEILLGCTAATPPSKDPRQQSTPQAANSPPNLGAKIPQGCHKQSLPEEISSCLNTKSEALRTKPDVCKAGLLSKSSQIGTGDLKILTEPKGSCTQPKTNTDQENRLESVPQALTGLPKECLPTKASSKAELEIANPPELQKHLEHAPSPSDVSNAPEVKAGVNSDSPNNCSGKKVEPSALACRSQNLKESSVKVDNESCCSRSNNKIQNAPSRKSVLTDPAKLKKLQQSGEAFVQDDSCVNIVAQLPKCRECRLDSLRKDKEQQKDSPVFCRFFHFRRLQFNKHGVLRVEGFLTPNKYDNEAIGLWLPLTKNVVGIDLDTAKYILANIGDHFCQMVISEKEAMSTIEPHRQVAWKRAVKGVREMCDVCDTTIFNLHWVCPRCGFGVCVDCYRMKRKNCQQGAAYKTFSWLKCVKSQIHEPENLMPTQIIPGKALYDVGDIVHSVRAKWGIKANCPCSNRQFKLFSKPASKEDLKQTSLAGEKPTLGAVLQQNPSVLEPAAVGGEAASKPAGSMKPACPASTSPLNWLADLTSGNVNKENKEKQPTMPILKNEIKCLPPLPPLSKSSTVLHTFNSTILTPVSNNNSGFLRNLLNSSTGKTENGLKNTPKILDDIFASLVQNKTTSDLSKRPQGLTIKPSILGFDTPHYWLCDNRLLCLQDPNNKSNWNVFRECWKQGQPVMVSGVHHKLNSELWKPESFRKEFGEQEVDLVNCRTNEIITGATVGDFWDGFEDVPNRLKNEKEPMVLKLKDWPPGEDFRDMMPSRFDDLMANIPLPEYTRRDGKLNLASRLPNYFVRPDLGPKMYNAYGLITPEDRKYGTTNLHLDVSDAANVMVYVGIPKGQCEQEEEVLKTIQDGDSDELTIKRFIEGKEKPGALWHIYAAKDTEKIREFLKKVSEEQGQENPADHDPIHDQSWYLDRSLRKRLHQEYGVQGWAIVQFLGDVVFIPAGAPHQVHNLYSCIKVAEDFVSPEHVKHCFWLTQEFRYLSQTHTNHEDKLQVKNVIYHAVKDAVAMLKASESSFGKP
Description: Inhibition assays for PHD2 (AlphaScreen) [9], the KDMs (AlphaScreen) [17], BBOX [18] and FTO [19] were carried out as previously described. […] IC50 values were calculated using nonlinear regression with normalized dose-response fit using GraphPad Prism 5.

FBXL11 (KDM2A) = target: T2, FBXL11 (KDM2A) (Homo sapiens, UniProt Q9Y2K7); parameters: method as in PMID 26682036; settings: cited from earlier work
T2 sequence (Q9Y2K7 1-1162): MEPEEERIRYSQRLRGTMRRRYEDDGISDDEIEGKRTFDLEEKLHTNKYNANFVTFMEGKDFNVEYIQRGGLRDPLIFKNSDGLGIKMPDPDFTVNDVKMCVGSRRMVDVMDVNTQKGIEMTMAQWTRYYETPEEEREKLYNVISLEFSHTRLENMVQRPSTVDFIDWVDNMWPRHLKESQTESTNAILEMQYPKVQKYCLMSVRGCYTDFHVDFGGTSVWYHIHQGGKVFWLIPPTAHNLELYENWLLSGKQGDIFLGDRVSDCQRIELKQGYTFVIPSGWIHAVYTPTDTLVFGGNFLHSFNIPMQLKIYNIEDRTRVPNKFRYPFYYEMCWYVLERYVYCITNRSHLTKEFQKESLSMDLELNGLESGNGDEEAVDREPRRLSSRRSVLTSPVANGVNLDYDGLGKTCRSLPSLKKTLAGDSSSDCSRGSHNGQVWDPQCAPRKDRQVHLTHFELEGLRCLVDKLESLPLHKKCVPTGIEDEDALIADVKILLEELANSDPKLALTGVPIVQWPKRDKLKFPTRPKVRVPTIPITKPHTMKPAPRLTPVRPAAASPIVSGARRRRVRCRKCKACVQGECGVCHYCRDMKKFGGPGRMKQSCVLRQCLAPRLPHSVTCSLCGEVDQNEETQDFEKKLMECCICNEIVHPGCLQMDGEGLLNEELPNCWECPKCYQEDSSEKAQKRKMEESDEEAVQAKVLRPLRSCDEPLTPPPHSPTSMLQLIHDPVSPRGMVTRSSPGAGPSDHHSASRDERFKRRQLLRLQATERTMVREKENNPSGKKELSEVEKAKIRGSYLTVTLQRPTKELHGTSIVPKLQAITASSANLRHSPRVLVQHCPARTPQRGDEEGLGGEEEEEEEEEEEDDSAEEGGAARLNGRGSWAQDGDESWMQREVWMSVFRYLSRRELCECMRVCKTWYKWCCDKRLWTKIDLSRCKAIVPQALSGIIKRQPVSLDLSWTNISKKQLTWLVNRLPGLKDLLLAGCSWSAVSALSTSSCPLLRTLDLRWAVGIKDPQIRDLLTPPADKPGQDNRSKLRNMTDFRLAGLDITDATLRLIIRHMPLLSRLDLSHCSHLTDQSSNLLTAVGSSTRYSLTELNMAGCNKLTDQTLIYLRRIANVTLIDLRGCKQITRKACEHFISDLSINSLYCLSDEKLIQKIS

FIH = FIH (Homo sapiens, UniProt Q9NWT6); test: FIH liquid chromatography-mass spectrometry assay (RapidFire)
Description: After 15 minutes, the enzyme reaction was stopped by the addition of 4 ml 10% formic acid and the reaction mixture transferred to a RapidFire RF360 high throughput sampling robot. Samples were aspirated under vacuum onto a C4 Solid Phase Extraction (SPE) cartridge. […] Ion chromatogram data was extracted for the non-hydroxylated peptide substrate and the hydroxylated peptide product and peak area data for extracted ion chromatograms were integrated using RapidFire Integrator software. Percentage conversion of substrate to product was calculated in Microsoft Excel and IC50 values were calculated using Graphpad Prism 5.

JMJD3 (KDM6B) = JMJD3 (KDM6B) (Homo sapiens, UniProt O15054); parameters: method as in PMID 26682036; settings: cited from earlier work
JARID1C (KDM5C) = JARID1C (KDM5C) (Homo sapiens, UniProt P41229); parameters: method as in PMID 26682036; settings: cited from earlier work
JMJD1A (KDM3A) [2] = target: T1, JMJD1A (KDM3A); parameters: method as in PMID 26682036; settings: cited from earlier work

JMJD3 (KDM6B), sequence (O15054 whole entry): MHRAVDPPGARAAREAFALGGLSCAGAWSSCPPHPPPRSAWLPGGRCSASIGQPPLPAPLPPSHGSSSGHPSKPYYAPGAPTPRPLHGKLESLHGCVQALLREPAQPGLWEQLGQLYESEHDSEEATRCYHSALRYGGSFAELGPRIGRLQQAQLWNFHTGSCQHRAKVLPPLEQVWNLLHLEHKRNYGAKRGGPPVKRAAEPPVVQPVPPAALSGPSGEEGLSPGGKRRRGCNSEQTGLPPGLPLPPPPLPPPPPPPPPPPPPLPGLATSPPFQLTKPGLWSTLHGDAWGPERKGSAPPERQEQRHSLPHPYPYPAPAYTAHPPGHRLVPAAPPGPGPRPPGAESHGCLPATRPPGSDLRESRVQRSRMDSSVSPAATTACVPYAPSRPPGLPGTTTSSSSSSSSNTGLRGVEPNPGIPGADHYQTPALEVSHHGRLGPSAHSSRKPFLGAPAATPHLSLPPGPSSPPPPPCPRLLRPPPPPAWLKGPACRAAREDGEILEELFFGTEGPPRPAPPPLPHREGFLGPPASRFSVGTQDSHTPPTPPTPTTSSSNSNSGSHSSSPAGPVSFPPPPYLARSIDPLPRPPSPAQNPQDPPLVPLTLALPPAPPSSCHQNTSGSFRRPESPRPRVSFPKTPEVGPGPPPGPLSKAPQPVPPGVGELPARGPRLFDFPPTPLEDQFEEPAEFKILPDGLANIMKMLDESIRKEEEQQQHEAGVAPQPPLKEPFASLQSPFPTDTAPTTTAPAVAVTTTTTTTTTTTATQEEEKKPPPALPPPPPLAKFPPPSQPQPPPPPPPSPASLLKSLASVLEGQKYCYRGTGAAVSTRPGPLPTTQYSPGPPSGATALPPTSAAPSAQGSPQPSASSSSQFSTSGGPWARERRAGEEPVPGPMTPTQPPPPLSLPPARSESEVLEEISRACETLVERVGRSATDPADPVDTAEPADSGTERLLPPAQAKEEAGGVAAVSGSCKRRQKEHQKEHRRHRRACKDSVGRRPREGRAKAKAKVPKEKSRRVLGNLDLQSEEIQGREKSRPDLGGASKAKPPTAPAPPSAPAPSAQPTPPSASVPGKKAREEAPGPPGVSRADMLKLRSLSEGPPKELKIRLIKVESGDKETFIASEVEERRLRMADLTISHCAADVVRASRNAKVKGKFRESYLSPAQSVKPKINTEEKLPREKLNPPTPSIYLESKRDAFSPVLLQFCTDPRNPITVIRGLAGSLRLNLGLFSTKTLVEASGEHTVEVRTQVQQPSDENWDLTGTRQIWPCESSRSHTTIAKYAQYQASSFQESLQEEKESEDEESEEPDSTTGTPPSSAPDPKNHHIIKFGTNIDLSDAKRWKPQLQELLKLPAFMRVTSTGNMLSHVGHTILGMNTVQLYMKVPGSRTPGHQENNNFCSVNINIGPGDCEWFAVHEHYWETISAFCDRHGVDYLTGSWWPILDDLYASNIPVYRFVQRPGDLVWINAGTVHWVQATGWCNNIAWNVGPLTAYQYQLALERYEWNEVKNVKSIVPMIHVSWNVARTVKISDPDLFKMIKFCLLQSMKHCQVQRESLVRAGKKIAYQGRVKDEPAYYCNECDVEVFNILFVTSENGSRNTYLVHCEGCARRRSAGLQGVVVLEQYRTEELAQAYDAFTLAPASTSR
FIH, sequence (Q9NWT6 whole entry): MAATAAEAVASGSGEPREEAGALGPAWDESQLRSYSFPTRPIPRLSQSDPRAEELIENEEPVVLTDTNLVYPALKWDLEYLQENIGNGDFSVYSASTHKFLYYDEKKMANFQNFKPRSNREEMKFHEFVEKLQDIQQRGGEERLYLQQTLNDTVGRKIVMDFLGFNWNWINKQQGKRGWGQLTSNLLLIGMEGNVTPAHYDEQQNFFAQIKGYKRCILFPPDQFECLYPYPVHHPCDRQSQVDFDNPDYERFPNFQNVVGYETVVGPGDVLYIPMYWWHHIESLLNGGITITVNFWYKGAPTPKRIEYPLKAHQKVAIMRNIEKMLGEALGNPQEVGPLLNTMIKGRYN
JARID1C (KDM5C), sequence (P41229 whole entry): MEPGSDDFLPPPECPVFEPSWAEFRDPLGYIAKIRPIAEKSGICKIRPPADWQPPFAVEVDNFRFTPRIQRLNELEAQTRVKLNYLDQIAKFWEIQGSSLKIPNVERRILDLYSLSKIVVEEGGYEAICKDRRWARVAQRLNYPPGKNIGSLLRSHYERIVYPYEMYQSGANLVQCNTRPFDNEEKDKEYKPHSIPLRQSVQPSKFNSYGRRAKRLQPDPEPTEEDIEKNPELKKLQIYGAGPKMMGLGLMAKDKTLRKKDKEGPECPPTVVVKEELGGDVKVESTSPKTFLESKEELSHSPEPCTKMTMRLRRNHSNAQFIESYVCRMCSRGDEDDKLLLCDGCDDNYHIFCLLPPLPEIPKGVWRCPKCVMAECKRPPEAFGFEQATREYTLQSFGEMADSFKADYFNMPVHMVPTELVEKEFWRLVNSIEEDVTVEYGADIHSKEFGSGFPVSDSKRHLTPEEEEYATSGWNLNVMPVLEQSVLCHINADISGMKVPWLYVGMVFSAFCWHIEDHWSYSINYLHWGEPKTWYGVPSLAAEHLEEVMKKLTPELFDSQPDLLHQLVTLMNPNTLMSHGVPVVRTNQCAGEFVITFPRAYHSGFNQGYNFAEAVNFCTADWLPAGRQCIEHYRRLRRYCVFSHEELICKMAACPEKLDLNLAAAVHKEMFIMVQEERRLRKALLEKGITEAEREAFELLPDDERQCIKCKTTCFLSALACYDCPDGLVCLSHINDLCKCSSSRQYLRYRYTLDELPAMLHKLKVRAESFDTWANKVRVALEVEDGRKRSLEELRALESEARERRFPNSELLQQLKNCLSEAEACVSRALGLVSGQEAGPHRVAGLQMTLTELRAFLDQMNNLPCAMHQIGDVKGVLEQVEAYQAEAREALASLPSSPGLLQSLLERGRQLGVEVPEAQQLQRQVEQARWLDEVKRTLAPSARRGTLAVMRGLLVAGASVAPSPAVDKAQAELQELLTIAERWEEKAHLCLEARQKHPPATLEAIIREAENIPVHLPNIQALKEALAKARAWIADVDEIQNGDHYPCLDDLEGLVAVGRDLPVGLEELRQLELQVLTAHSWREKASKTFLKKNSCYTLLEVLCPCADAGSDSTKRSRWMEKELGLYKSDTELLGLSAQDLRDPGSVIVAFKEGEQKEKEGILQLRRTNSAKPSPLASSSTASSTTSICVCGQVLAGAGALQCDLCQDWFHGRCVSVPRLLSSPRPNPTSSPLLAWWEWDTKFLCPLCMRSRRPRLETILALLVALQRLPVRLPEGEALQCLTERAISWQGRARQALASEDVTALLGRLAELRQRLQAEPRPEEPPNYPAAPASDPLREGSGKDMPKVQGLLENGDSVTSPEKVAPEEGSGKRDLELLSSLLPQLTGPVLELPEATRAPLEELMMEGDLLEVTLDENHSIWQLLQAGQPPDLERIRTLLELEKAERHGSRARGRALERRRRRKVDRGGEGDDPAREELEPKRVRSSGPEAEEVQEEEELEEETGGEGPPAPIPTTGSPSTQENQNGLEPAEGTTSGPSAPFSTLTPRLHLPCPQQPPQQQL

| SMILES | IC50 (JMJD1A (KDM3A) [1]) [µM] | IC50 (FBXL11 (KDM2A)) [µM] | IC50 (FIH) [µM] | IC50 (JMJD3 (KDM6B)) [µM] | IC50 (JARID1C (KDM5C)) [µM] | IC50 (JMJD1A (KDM3A) [2]) [µM] |
| --- | --- | --- | --- | --- | --- | --- |
| CC(C)(C)OC(=O)c1ccc(-n2[nH]cc(-n3ccnn3)c2=O)nc1 [IOX4, t-Butyl 6-(5-oxo-4-(1H-1,2,3-triazol-1-yl)-2,5-dihydro-1H-pyrazol-1-yl)nicotinate] | > 20 | – | – | – | – | – |
| O=C(O)CNC(=O)c1c(O)c2ccccc2n(Cc2ccccc2)c1=O [IOX2] | – | 52 | > 100 | > 100 | 159 | > 100 |
